Patent US20040213837A1, “Oil-core compositions for the sustained release of hydrophobic drugs” (priority 2002, published 2004)
Values after ≈ are worked out from the molar mass of the structure shown. Structures can show the parent of a compound that is named as a salt.

Legend:
[1] = Solubility of bupivacaine free-base in triolein or tricaprylin; type: physicochemical
Protocol: To confirm that the formation of bupivacaine crystals was related to differing solubility of the drug in the oils used, a solubility experiment was performed. Varying amounts of bupivacaine free-base were added to 1.0 g aliquots of either triolein or tricaprylin in small vials with Teflon-lined screw caps. These vials were heated to ˜70° C., shaken vigorously, cooled to room temperature, then 1.0 mL of 10 mM lysine/5% sorbitol was added to each vial. The vials were put in a 4° C. cold room for a month. […] This vial was the only one in which a precipitate disappeared upon warming to room temperature.

[2] = In vivo concentration-time course of paclitaxel after intraperitoneal injection; details: rat, 16 mg/kg intraperitoneal, OCP or conventional formulation, HPLC
Protocol: “Conventional” formulations of paclitaxel were prepared by adding 6 mg paclitaxel to 1 mL of a mixture (1:1, v/v) of anhydrous alcohol and Cremophor® EL (Sigma Chemical Company, St. Louis, Mo.). […] At the indicated time points, animals were euthanized and blood, peritoneal fluid, liver, and spleen samples were collected, processed and quickly frozen.
Paclitaxel concentrations in plasma, peritoneal fluid, and homogenized tissues were determined by HPLC after liquid-liquid extraction of the samples with diethyl ether followed by solid-phase extraction (Bond Elut; Varian, Harbor City, Calif.). The samples were then suspended in 45:15:40 acetonitrile:methanol:water, and 50 μL was injected onto a Waters Symmetry C18 column (Waters, Taunton, Mass.) with a Hewlett-Packard Model 1100 solvent delivery system (Hewlett-Packard, Wilmington, Del.). The mobile phase was a mixture of acetonitrile, methanol, and 0.2 M ammonium acetate at pH 5 (45:15:40) with a rate of 1 mL/min; detection was at a wavelength of 230 nm. Apparent terminal half-lives (T1/2beta) were estimated from the terminal log-linear decline of the concentration-time profiles.

[3] = tested on: microtubule bundling; details: Rowinsky et al., Cancer Research 48: 4093-4100, 1988; cited from earlier work
[4] = tested on: response to pin pricks; test: Guinea pig intracutaneous injection, response to pin pricks; type: in vivo, guinea pigs; details: 1.0 mL intracutaneous, equivalent to 1% bupivacaine HCl monohydrate
Protocol: This is used in an assay of anesthetic effect. Previously shaved guinea pigs (4-5 per group) were marked with a stencil in the form of a circular array, with 17 tick marks at various radii and directions from the center of the array. Animals anesthetized with Halothane were injected intracutaneously with 1.0 mL of either the tricaprylin-core bupivacaine suspension or a solution of 1% bupivacaine HCl monohydrate in 5% sorbitol. The response to pin pricks was tested at various post-injection intervals (30 min, 3, 6, 9, 12, 18, 24, 30 and 36 hours) and the results summarized in FIG. 3. A vocalization or muscle twitch was considered a positive response. The guinea pigs' response to the bupivacaine solution decayed to half of its maximum at about 3.6 hours after injection. An equivalent (on a molar basis) dose of bupivacaine free base tricaprylin-core suspension took about 8½ hours to decay to the same number of negative responses, and took about 11 hours to decay to half of the maximal response for this formulation.

[5] = 4° C. for a month, with 10 mM lysine/5% sorbitol

CCCCN1CCCCC1C(=O)Nc1c(C)cccc1C (centres unmarked) [bupivacaine free-base, bupivacaine]
relative solubility in tricaprylin and triolein [1]: more soluble in tricaprylin than in triolein
bupivacaine content at which no precipitates were seen, in tricaprylin [1, 5]: ≤ 40 mg per g tricaprylin
bupivacaine content at which no precipitates were seen, in triolein [1, 5]: ≤ 20 mg per g triolein
bupivacaine content at which precipitates or large masses were seen, in tricaprylin [1, 5]: ≥ 50 mg per g tricaprylin
bupivacaine content at which precipitates or large masses were seen, in triolein [1, 5]: ≥ 30 mg per g triolein

CC(=O)O[C@H]1C(=O)[C@@]2(C)[C@H]([C@H](OC(=O)c3ccccc3)[C@]3(O)C[C@H](OC(=O)[C@H](O)[C@@H](NC(=O)c4ccccc4)c4ccccc4)C(C)=C1C3(C)C)[C@]1(OC(C)=O)CO[C@@H]1C[C@@H]2O [Paclitaxel, paclitaxel]
Paclitaxel levels in plasma [2]: below the limit of detection
minimum inhibitory concentration required to induce microtubule bundling and other cytotoxic effects in vitro [3]: 0.085 µg/mL (≈ 0.0995 µM)

CCCCN1CCCCC1C(=O)Nc1c(C)cccc1C (centres unmarked) [bupivacaine solution, bupivacaine HCl monohydrate]
time for response to decay to half of its maximum [4]: about 3.6 hours
